Assay results published in patent publication US20240390352A1, “PHARMACEUTICAL COMPOSITION FOR PREVENTING OR TREATING CANCER COMPRISING CARNITINE ACYLCARNITINE CARRIER INHIBITOR AND ANTITUMOR AGENT” (NEW CANCER CURE - BIO CO.,LTD., priority 2021, published 2024).
Where “and” joins values, the source holds several entries; their conditions need not be identical. Equal values may be shown once. Entries after “also recorded” stand apart in the source; their conditions may differ.

Key:
HCT-116 cells = assay: SRB assay cancer cell growth rate, HCT-116; assay type: cell-based; conditions: relative to control (100%), 48 hours, KN510 200 μM, irinotecan 2.5 μM, 5-FU 5 μM, gemcitabine 2.5 μM, paclitaxel 10 nM, cisplatin 1 μM, alone or KN510 + anticancer drug
CAKI-1 cells = assay: SRB assay cancer cell growth rate, CAKI-1; assay type: cell-based; conditions: relative to control (100%), 48 hours, KN510 200 μM, irinotecan 2.5 μM, 5-FU 5 μM, gemcitabine 2.5 μM, paclitaxel 10 nM, cisplatin 1 μM, alone or KN510 + anticancer drug
ACHN cells = assay: SRB assay cancer cell growth rate, ACHN; assay type: cell-based; conditions: relative to control (100%), 48 hours, KN510 200 μM, irinotecan 2.5 μM, 5-FU 5 μM, gemcitabine 2.5 μM, paclitaxel 10 nM, cisplatin 1 μM, alone or KN510 + anticancer drug
UACC62 cells = assay: SRB assay cancer cell growth rate, UACC62; assay type: cell-based; conditions: relative to control (100%), 48 hours, KN510 200 μM, irinotecan 2.5 μM, 5-FU 5 μM, gemcitabine 2.5 μM, paclitaxel 10 nM, cisplatin 1 μM, alone or KN510 + anticancer drug
UACC257 cells = assay: SRB assay cancer cell growth rate, UACC257; assay type: cell-based; conditions: relative to control (100%), 48 hours, KN510 200 μM, irinotecan 2.5 μM, 5-FU 5 μM, gemcitabine 2.5 μM, paclitaxel 10 nM, cisplatin 1 μM, alone or KN510 + anticancer drug
OVCAR-8 cells = assay: SRB assay cancer cell growth rate, OVCAR-8; assay type: cell-based; conditions: relative to control (100%), 48 hours, KN510 200 μM, irinotecan 2.5 μM, 5-FU 5 μM, gemcitabine 2.5 μM, paclitaxel 10 nM, cisplatin 1 μM, alone or KN510 + anticancer drug
A549 cells = assay: SRB assay cancer cell growth rate, A549; assay type: cell-based; conditions: relative to control (100%), 48 hours, KN510 200 μM, irinotecan 2.5 μM, 5-FU 5 μM, gemcitabine 2.5 μM, paclitaxel 10 nM, cisplatin 1 μM, alone or KN510 + anticancer drug
PC-3 cells = assay: SRB assay cancer cell growth rate, PC-3; assay type: cell-based; conditions: relative to control (100%), 48 hours, KN510 200 μM, irinotecan 2.5 μM, 5-FU 5 μM, gemcitabine 2.5 μM, paclitaxel 10 nM, cisplatin 1 μM, alone or KN510 + anticancer drug
SR cells = assay: SRB assay cancer cell growth rate, SR; assay type: cell-based; conditions: relative to control (100%), 48 hours, KN510 200 μM, irinotecan 2.5 μM, 5-FU 5 μM, gemcitabine 2.5 μM, paclitaxel 10 nM, cisplatin 1 μM, alone or KN510 + anticancer drug
K562 cells = assay: SRB assay cancer cell growth rate, K562; assay type: cell-based; conditions: relative to control (100%), 48 hours, KN510 200 μM, irinotecan 2.5 μM, 5-FU 5 μM, gemcitabine 2.5 μM, paclitaxel 10 nM, cisplatin 1 μM, alone or KN510 + anticancer drug
[1] = tested on: colon cancer cell lines HCT-116 cells and COLO-205 cells; assay: Synergistic effect of omeprazole and anticancer drug, colon cancer cell lines; assay type: cell-based; conditions: anticancer drug combined with omeprazole (KN510) versus each treatment alone
[2] = tested on: renal cell carcinoma cell lines CAKI-1 and ACHN cells; assay: Synergistic effect of omeprazole and anticancer drug, renal cancer cell lines; assay type: cell-based; conditions: anticancer drug combined with omeprazole (KN510) versus each treatment alone
[3] = tested on: liver cancer cell lines SK-HEP-1 cells and Huh-7 cells; assay: Synergistic effect of omeprazole and anticancer drug, liver cancer cell lines; assay type: cell-based; conditions: anticancer drug combined with omeprazole (KN510) versus each treatment alone
[4] = tested on: glioblastoma (GBM) cell lines, U-87 MG cells and T87G cells; assay: Synergistic effect of omeprazole and anticancer drug, glioblastoma cell lines; assay type: cell-based; conditions: anticancer drug combined with omeprazole (KN510) versus each treatment alone
[5] = tested on: melanoma cell lines UACC62 cells and UACC257 cells; assay: Synergistic effect of omeprazole and anticancer drug, melanoma cell lines; assay type: cell-based; conditions: anticancer drug combined with omeprazole (KN510) versus each treatment alone
[6] = tested on: pancreatic ductal adenocarcinoma (PDAC) cell lines, MIA PaCa-2 cells and PANC-1 cells; assay: Synergistic effect of omeprazole and anticancer drug, pancreatic cancer cell lines; assay type: cell-based; conditions: anticancer drug combined with omeprazole (KN510) versus each treatment alone
[7] = tested on: MKN-28 cells and AGS cells, stomach cancer cells; assay: Synergistic effect of omeprazole and anticancer drug, stomach cancer cells; assay type: cell-based; conditions: anticancer drug combined with omeprazole (KN510) versus each treatment alone
[8] = tested on: ovarian cancer cells, OVCAR-8 cells and SK-OV-3 cells; assay: Synergistic effect of omeprazole and anticancer drug, ovarian cancer cells; assay type: cell-based; conditions: anticancer drug combined with omeprazole (KN510) versus each treatment alone
[9] = tested on: A549 and H23 lung cancer cells; assay: Synergistic effect of omeprazole and anticancer drug, lung cancer cells; assay type: cell-based; conditions: anticancer drug combined with omeprazole (KN510) versus each treatment alone
[10] = tested on: breast cancer cells, MDA-MB-231 cells and MCF-7 cells; assay: Synergistic effect of omeprazole and anticancer drug, breast cancer cells; assay type: cell-based; conditions: anticancer drug combined with omeprazole (KN510) versus each treatment alone
[11] = tested on: prostate cancer cells, PC-3 cells and DU-145 cells; assay: Synergistic effect of omeprazole and anticancer drug, prostate cancer cells; assay type: cell-based; conditions: anticancer drug combined with omeprazole (KN510) versus each treatment alone
[12] = tested on: leukemia cells, SR cells and K562 cells; assay: Synergistic effect of omeprazole and anticancer drug, leukemia cells; assay type: cell-based; conditions: anticancer drug combined with omeprazole (KN510) versus each treatment alone
[13] = tested on: MIA PaCa-2 cells xenograft tumor; assay: Pancreatic cancer xenograft tumor model; assay type: in vivo, Balb/c nude mice; conditions: irinotecan 20 mg/kg IP 1 days/week, alone or combined
Experimental: To determine the anticancer synergistic effects of omeprazole (KN510) and irinotecan co-administration in vivo, a pancreatic cancer xenograft tumor model was constructed and administered with the drugs.
Specifically, 6-8 week old Balb/c nude mice (Orient, Korea) were inoculated subcutaneously with MIA PaCa-2 cells (1×10^7) in 100 μl PBS using 1 ml syringe, and when the tumor size reached 100 mm^3, the mice were randomly divided into 4 groups with 4 mice per group, and then treated with drugs as shown in Table 14 below.
We also performed two separate experiments with omeprazole (KN510), one at a concentration of 50 mg/kg and the other at 100 mg/kg. • 1) Control (solvent treatment) • 2) Omeprazole (KN510) alone (50 mg/kg or 100 mg/kg, P.O. injection), • 3) Irinotecan alone (20 mg/kg, I.P injection), • 4) Omeprazole (KN510) (50 mg/kg or 100 mg/kg)+irinotecan (20 mg/kg/) as a combination treatment group
Primary tumor size was measured weekly using calipers. Tumor volumes were calculated using Equation 1 below, and data are expressed as mean (mean)+standard deviation (SD) values of mouse tumor volume per group.

[14] = experiment with KN510 50 mg/kg PO 5 days/week
[15] = experiment with KN510 100 mg/kg PO 5 days/week

Compound	HCT-116 growth rate average (%) (HCT-116 cells)	CAKI-1 growth rate average (%) (CAKI-1 cells)	ACHN growth rate average (%) (ACHN cells)	UACC62 growth rate average (%) (UACC62 cells)	UACC257 growth rate average (%) (UACC257 cells)	OVCAR-8 growth rate average (%) (OVCAR-8 cells)	A549 growth rate average (%) (A549 cells)	PC-3 growth rate average (%) (PC-3 cells)	SR growth rate average (%) (SR cells)	K562 growth rate average (%) (K562 cells)	synergistic effect of omeprazole and an anticancer drug in combination, colon cancer [1]	synergistic effect of omeprazole and an anticancer drug in combination, renal cell carcinoma [2]	synergistic effect of omeprazole and an anticancer drug in combination, liver cancer [3]	synergistic effect of omeprazole and an anticancer drug in combination, glioblastoma (GBM) [4]	synergistic effect of omeprazole and an anticancer drug in combination, melanoma [5]	synergistic effect of omeprazole and an anticancer drug in combination, pancreatic cancer (PDAC) [6]	synergistic effect of omeprazole and an anticancer drug in combination, stomach cancer [7]	synergistic effect of omeprazole and an anticancer drug in combination, ovarian cancer [8]	synergistic effect of omeprazole and an anticancer drug in combination, lung cancer [9]	synergistic effect of omeprazole and an anticancer drug in combination, breast cancer [10]	further results
O=c1[nH]cc(F)c(=O)[nH]1 [5-FU, fluorouracil]	41.59	47.91%	48.97	52.14	62.17%	27.12%	27.36	55.19	96.15	99.83	significantly inhibited; also recorded: Positive effect	significantly inhibited; also recorded: Positive effect	significantly inhibited; also recorded: Positive effect	Negative effect	significantly inhibited; also recorded: Positive effect	Negative effect	Negative effect	Negative effect	significantly inhibited; also recorded: Positive effect	Negative effect	synergistic effect of omeprazole and an anticancer drug in combination, prostate cancer [11]: Negative effect; synergistic effect of omeprazole and an anticancer drug in combination, leukemia [12]: significantly inhibited; also recorded: Positive effect
N.N.[Cl][Pt][Cl] [Cisplatin]	100.00	88.17%	78.57	62.76	76.16%	51.47%	99.46	82.60	93.52	102.62	Negative effect	Negative effect	Negative effect	Negative effect	Negative effect	Negative effect	Negative effect	Positive effect	Negative effect	Negative effect	synergistic effect of omeprazole and an anticancer drug in combination, ovarian cancer ([8]; listed as cisplatin): significantly inhibited; synergistic effect of omeprazole and an anticancer drug in combination, prostate cancer [11]: Negative effect; synergistic effect of omeprazole and an anticancer drug in combination, leukemia [12]: Positive effect; synergistic effect of omeprazole and an anticancer drug in combination, leukemia ([12]; listed as cisplatin): significantly inhibited
Nc1ccn([C@@H]2O[C@H](CO)[C@@H](O)C2(F)F)c(=O)n1 [Gemcitabine]	16.32	2.30%	−2.82	53.65	30.97%	−14.25%	−16.60	32.17	53.15	53.51	Negative effect	Negative effect	Negative effect	Negative effect	Negative effect	Negative effect	Negative effect	Negative effect	Negative effect	Negative effect	synergistic effect of omeprazole and an anticancer drug in combination, prostate cancer [11]: Negative effect; synergistic effect of omeprazole and an anticancer drug in combination, leukemia [12]: Negative effect
COc1ccc2[nH]c([S+]([O-])Cc3ncc(C)c(OC)c3C)nc2c1 (stereo not drawn) [KN510, omeprazole]	35.30	41.69% and 35.30%			10.97% and 3.31% and 3.10% and 4.33%	30.64% and 38.65%	10.47	12.70	42.75	34.61											Tumor volume, 2 week average [13, 14]: 143.01 mm^3; Tumor volume, 2 week average [13, 15]: 93.96 mm^3; Tumor volume, 3 week average [13, 14]: 675.69 mm^3; Tumor volume, 3 week average [13, 15]: 229.95 mm^3; Tumor volume, 4 week average [13, 14]: 965.63 mm^3; Tumor volume, 4 week average [13, 15]: 469.90 mm^3; Tumor volume, 5 week average [13, 14]: 1296.93 mm^3; Tumor volume, 5 week average [13, 15]: 843.25 mm^3
